# Values quoted from earlier work as cited in patent US8686137B2, “Heterocyclic compounds and their uses” (Amgen Inc., priority 2010, dated 2014).
# Columns and labels:
# [1] = tested on: model of systemic lupus erythematosis; conditions: in vivo
# [2] = tested on: mouse model of rheumatoid arthritis; conditions: in vivo
# [3] = tested on: protein kinases
# [4] = tested on: passive cutaneous anaphylaxis (PCA); conditions: absence of functional delta (compound or p110δ D910A mice)
# [5] = target: T1, p110δ (Homo sapiens, UniProt O00329)
# T1 sequence (O00329 1-1044): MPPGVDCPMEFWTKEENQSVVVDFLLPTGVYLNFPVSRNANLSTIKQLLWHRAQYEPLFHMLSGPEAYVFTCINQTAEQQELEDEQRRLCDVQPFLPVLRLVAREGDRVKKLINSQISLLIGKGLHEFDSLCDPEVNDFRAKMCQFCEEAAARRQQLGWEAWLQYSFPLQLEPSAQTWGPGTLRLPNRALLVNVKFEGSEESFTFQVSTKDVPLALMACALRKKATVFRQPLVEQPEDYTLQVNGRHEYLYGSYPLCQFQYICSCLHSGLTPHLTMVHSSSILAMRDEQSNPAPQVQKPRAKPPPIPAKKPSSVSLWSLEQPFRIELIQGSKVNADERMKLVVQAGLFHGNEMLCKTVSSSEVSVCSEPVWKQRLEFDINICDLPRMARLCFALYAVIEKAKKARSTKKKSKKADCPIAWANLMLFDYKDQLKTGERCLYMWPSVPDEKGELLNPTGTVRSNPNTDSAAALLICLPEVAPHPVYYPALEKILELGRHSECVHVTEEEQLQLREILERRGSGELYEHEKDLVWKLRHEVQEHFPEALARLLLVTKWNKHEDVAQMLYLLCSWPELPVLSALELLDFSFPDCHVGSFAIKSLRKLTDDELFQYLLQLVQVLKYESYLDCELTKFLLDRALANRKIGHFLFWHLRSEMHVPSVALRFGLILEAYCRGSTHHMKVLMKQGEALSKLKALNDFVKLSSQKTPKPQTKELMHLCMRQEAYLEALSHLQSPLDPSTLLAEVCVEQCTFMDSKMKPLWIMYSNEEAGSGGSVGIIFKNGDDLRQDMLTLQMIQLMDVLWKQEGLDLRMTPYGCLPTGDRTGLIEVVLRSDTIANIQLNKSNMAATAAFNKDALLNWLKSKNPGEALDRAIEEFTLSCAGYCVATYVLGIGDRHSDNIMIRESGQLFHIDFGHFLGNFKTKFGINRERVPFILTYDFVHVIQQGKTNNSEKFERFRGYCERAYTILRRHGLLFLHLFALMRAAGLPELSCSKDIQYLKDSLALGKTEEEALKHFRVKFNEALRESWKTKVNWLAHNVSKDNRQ
# [6] = tested on: ovalbumin-induced airway inflammation
SMILES,onset of disease in a model of systemic lupus erythematosis [1],efficacy in a mouse model of rheumatoid arthritis [2],activity against any protein kinases tested [3],passive cutaneous anaphylaxis (PCA) [4],inhibits p110δ [5],inflammation and disease in a murine model of asthma [6]
O=C1NC(=O)/C(=C\c2ccc3nccnc3c2)S1 [AS 605240],delay onset of disease,efficacious,–,–,–,–
Cc1ccccc1-n1c(Cn2cnc3c(N)ncnc32)nc2cccc(C)c2c1=O [IC87114],–,–,no activity,significantly reduced,high nanomolar range (triple digit),significantly ameliorate
